Measurements reported in patent US20230282357A1, “ACUTE LIVER PATIENT MANAGEMENT” (MERIDIAN BIOSCIENCE ISRAEL LTD., priority 2020, published 2023).
Where two headings read alike, the source gives them in different places.

What was measured:
CYP1A2 metabolism [1] = biological target: T1, CYP1A2 metabolism (Homo sapiens, UniProt P05177); conditions: in vivo
T1 sequence (P05177 1-516): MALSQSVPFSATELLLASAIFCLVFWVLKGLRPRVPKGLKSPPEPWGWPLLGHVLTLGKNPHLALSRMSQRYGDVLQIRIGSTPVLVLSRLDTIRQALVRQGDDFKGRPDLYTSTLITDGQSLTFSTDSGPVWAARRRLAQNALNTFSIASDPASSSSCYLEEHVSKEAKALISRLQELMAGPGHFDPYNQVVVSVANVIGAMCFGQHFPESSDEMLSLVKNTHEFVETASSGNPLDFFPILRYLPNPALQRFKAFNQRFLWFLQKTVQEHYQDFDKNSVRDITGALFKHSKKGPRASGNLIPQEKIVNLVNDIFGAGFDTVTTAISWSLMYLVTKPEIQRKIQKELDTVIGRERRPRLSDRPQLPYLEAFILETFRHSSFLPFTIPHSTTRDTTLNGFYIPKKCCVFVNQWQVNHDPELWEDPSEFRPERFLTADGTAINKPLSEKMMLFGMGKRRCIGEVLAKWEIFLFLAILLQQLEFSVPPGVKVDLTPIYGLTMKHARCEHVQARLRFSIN
Experimental: (§1) A ^13C-methacetin breath test (MBT), which assays CYP1A2 metabolism, for assessing functional liver capacity and its changes over time, was utilized to predict transplant-free survival.
(§2) Method: Eligible patients with ALF or non-acetaminophen (APAP) ALI underwent ^13C-MBT at day 1, 2, 3, 5 and 7 after enrollment, unless discharged, transplanted or died. 75 mg of ^13C-methacetin was administered orally or via a nasogastric tube, and exhaled ^13CO2 measured for up to 60 minutes using the BreathID® (Exalenz Bioscience Ltd., Modi’in, Israel). The percent dose recovery (PDR) peak was determined on day 1 or 2 and correlated with 21-day outcome.

[2] = human, in vivo
CYP1A2 metabolism [3] = biological target: T1, CYP1A2 metabolism; assay: 13C-methacetin breath test (MBT), PDR-peak in ALF/ALI patients
Experimental: as §1, §2

Q: Which “mean serial PDR-peaks, TFS vs non-TFS” value (CYP1A2 metabolism [1]) does the source give for CC(=O)Nc1ccc(O[13CH3])cc1 [^13C-methacetin] here?
A: The value was “consistently higher”.

Q: And the “serial PDR peak results” value (CYP1A2 metabolism [1])?
A: Its value is “very low PDR-peak during the entire period”.

Q: What about the “de-novo or worsening serum cysteine-APAP protein adduct levels on serial testing” value [2] of the same molecule?
A: Its value is “None of the first 20 patients”.

Q: What about the “serious adverse events attributable to test device or substrate” value [2] of the same molecule?
A: The value was “no serious adverse events”.

Q: And the “AUROC of PDR-peak as predictor of 21-day transplant free survival” value (CYP1A2 metabolism [3]; 42 ALF patients, Day 1 or 2 PDR-peak values)?
A: Its value is 0.82 (95% CI 0.68-0.96).

Q: And the “AUROC of PDR-peak as predictor of 21-day transplant free survival” value (CYP1A2 metabolism [3]; 42 ALF patients, combined with the ALFSG prognostic index)?
A: The value was 0.93.

Q: What about the “AUROC of PDR-peak as predictor of 21-day transplant free survival” value (CYP1A2 metabolism [3]; 42 ALF patients, with inclusion of ALF etiology) of the same molecule?
A: The value was 0.89 (95% CI 0.79-0.98).

Q: What about the “AUROC of PDR-peak as predictor of 21-day transplant free survival” value (CYP1A2 metabolism [3]; 56 ALF and ALI patients, day 1 or 2 measures) of the same molecule?
A: Its value is 0.88 (95% CI 0.79-0.97).

Q: And the “AUROC of PDR-peak as predictor of 21-day transplant free survival” value (CYP1A2 metabolism [3]; 56 ALF and ALI patients, with inclusion of the etiology of ALI/ALF)?
A: The value was 0.92 (95% CI 0.85-0.99).

Q: And the “serial PDR peak results” value (CYP1A2 metabolism [3]; ALF DILI patient who survived without transplant, FIG. 6)?
A: Its value is “improved from day 2 through day 7”.

Q: And the “day 1 or 2 mean PDR-peak” value (CYP1A2 metabolism [3]; transplant-free survivors (TFS), 75 mg orally or via nasogastric tube, exhaled 13CO2 up to 60 minutes)?
A: The value was 9.2 %/h.
